This experiment deals with Wnt activity (Sp5-Luc reporter, SW480 colon carcinoma cells). Kind of experiment: Screening assay for Wnt activity: Sp5-Luc reporter gene assay in SW480 cells. The experiment is classed as cell-based. The settings on record: Homo sapiens, 42 h incubation, luminescence. An excerpt: The screening assay for Wnt activity is described as follows. Reporter cell lines can be generated by stably transducing cancer cell lines (e.g., colon cancer) or primary cells (e.g., IEC-6 intestinal cells) with a lentiviral construct that includes a Wnt-responsive promoter driving expression of the firefly luciferase gene.
SW480 colon carcinoma cells were transduced with a lentiviral vector expressing luciferase with a human Sp5 promoter consisting of a sequence of eight TCF/LEF binding sites. SW480 cells stably expressing the Sp5-Luc reporter gene and a hygromycin resistance gene were selected by treatment with 150 μg/ml of hygromycin for 7 days. These stably transduced SW480 cells were expanded in cell culture and used for all further screening activities. For Sp5-Luc reporter gene assays, the cells were plated at 10,000 cells/well in 96-well plates with growth medium containing 10% fetal calf serum and incubated overnight at 37° C. and 5% CO2. Each compound was dissolved in DMSO as a 10 mM stock in standard j-vials and used to prepare compound source plates in dose-response format with 3-fold serial dilutions and a 10 mM top concentration. Compound transfer from serially diluted source plates to assay plates containing the cells was accomplished using a pintool (Multimek 96, Beckman equipped with V&P Scientific FP1S50H pins) based liquid handling protocol. This protocol used a slotted pin to transfer 50 nl of compound from a source plate well to an assay plate well containing 50 μl of cells in growth medium. […] Control wells received 50 nl of DMSO treatment for normalization and calculating IC50 values. The treated cells were incubated at 37° C. and 5% CO2 for an additional forty-two hours. Following incubation, the growth medium was removed and 50 μl of BrightGlo luminescence reagent (Promega) was added to each well of the 96-well assay plates. The plates were placed on an orbital shaker for 5 min and then luminescence was quantified on the Victor3 (Perkin Elmer) plate reader. Readings were normalized to DMSO only treated cells, and normalized activities were utilized for IC50 calculations using the dose-response log (inhibitor) vs. response-variable slope (four parameters) nonlinear regression feature available in GraphPad Prism 5.0 or 6.0.
In general terms: A reporter such as luciferase makes a cellular process visible.

For 22 compounds, IC50 results are on record in patent US10081631B2, “2-(1H-indazol-3-yl)-1H-imidazo[4,5-C]pyridine and therapeutic uses thereof” (Samumed, LLC, priority 2014, dated 2018).

For orientation: IC50 means the concentration that gives 50% inhibition. Low readings indicate inhibition by little substance, high ones a need for much substance. `O=C(Cc1ccccc1)Nc1cncc(-c2ccc3[nH]nc(-c4nc5c(-c6ccncc6)nccc5[nH]4)c3c2)c1` [Compound 114, 2-Phenyl-N-(5-(3-(4-(pyridin-4-yl)-1H-imidazo[4,5-c]pyridin-2-yl)-1H-indazol-5-yl)pyridin-3-yl)acetamide] yielded an IC50 of 0.036 µM.
Then `CCCC(=O)Nc1cncc(-c2ccc3[nH]nc(-c4nc5c(-c6ccncc6)nccc5[nH]4)c3c2)c1` [Compound 121, N-(5-(3-(4-(Pyridin-4-yl)-1H-imidazo[4,5-c]pyridin-2-yl)-1H-indazol-5-yl)pyridin-3-yl)butyramide], with 0.102 µM; and `O=C(Nc1cncc(-c2ccc3[nH]nc(-c4nc5c(-c6ccccn6)nccc5[nH]4)c3c2)c1)c1ccccc1` [Compound 141, N-(5-(3-(4-(Pyridin-2-yl)-1H-imidazo[4,5-c]pyridin-2-yl)-1H-indazol-5-yl)pyridin-3-yl)benzamide], with over 10 µM; and `CCCCC(=O)Nc1cncc(-c2ccc3[nH]nc(-c4nc5c(-c6ccccn6)nccc5[nH]4)c3c2)c1` [Compound 148, N-(5-(3-(4-(Pyridin-2-yl)-1H-imidazo[4,5-c]pyridin-2-yl)-1H-indazol-5-yl)pyridin-3-yl)pentanamide], with 0.248 µM.
On to `CC(C)Nc1cncc(-c2ccc3[nH]nc(-c4nc5c(N6CCCCC6)nccc5[nH]4)c3c2)c1` [Compound 168, N-Isopropyl-5-(3-(4-(piperidin-1-yl)-1H-imidazo[4,5-c]pyridin-2-yl)-1H-indazol-5-yl)pyridin-3-amine], for which the half-inhibitory concentration (IC50) came out at 0.0881 µM. Compared with the last compound, the IC50 is about 2.8-fold lower.
Then `CN1CCN(c2nccc3[nH]c(-c4n[nH]c5ccc(-c6cncc(N)c6)cc45)nc23)CC1` [Compound 211, 5-(3-(4-(4-Methylpiperazin-1-yl)-1H-imidazo[4,5-c]pyridin-2-yl)-1H-indazol-5-yl)pyridin-3-amine], with 0.0971 µM; and `CN1CCN(c2nccc3[nH]c(-c4n[nH]c5ccc(-c6cccnc6)cc45)nc23)CC1` [Compound 212, 4-(4-Methylpiperazin-1-yl)-2-(5-(pyridin-3-yl)-1H-indazol-3-yl)-1H-imidazo [4,5-c]pyridine], with 0.065 µM; and `CC(=O)c1ccc(-c2nccc3[nH]c(-c4n[nH]c5ccc(-c6cncc(NC(=O)CC(C)(C)C)c6)cc45)nc23)s1` [Compound 380, N-(5-(3-(4-(5-Acetylthiophen-2-yl)-1H-imidazo[4,5-c]pyridin-2-yl)-1H-indazol-5-yl)pyridin-3-yl)-3,3-dimethylbutanamide], with 0.187 µM.
Then `CN(C)Cc1cncc(-c2cc(F)c3[nH]nc(-c4nc5c(-c6cccc(F)c6)nccc5[nH]4)c3c2)c1` [Compound 456, 1-(5-(7-Fluoro-3-(4-(3-fluorophenyl)-1H-imidazo[4,5-c]pyridin-2-yl)-1H-indazol-5-yl)pyridin-3-yl)-N,N-dimethylmethanamine], with 0.09 µM; and `CN(C)Cc1cncc(-c2cc(F)c3[nH]nc(-c4nc5c(-c6ccsc6)nccc5[nH]4)c3c2)c1` [Compound 688, 1-(5-(7-Fluoro-3-(4-(thiophen-3-yl)-1H-imidazo[4,5-c]pyridin-2-yl)-1H-indazol-5-yl)pyridin-3-yl)-N,N-dimethylmethanamine], with 0.415 µM; and `CN(C)Cc1cncc(-c2cc(F)c3[nH]nc(-c4nc5c(-c6cc(F)cc(CNS(C)(=O)=O)c6)nccc5[nH]4)c3c2)c1` [Compound 844, N-(3-(2-(5-(5-((Dimethylamino)methyl)pyridin-3-yl)-7-fluoro-1H-indazol-3-yl)-1H-imidazo[4,5-c]pyridin-4-yl)-5-fluorobenzyl)methanesulfonamide], with 0.096 µM.
Then `CN(C)Cc1cncc(-c2cc3c(-c4nc5c(-c6cccc(F)c6)nccc5[nH]4)n[nH]c3cc2F)c1` [Compound 898, 1-(5-(6-Fluoro-3-(4-(3-fluorophenyl)-1H-imidazo[4,5-c]pyridin-2-yl)-1H-indazol-5-yl)pyridin-3-yl)-N,N-dimethylmethanamine], with 1.45 µM; and `CN(C)Cc1cncc(-c2cc3c(-c4nc5c(-c6ccsc6)nccc5[nH]4)n[nH]c3cc2F)c1` [Compound 1132, 1-(5-(6-Fluoro-3-(4-(thiophen-3-yl)-1H-imidazo[4,5-c]pyridin-2-yl)-1H-indazol-5-yl)pyridin-3-yl)-N,N-dimethylmethanamine], with 3.68 µM.
As to `CN(C)Cc1cncc(-c2cc3c(-c4nc5c(-c6cc(F)cc(CNS(C)(=O)=O)c6)nccc5[nH]4)n[nH]c3cc2F)c1` [Compound 1288, N-(3-(2-(5-(5-((Dimethylamino)methyl)pyridin-3-yl)-6-fluoro-1H-indazol-3-yl)-1H-imidazo[4,5-c]pyridin-4-yl)-5-fluorobenzyl)methanesulfonamide], the midpoint of inhibition, the IC50, lay at 0.637 µM. Against the preceding compound, the IC50 is about 5.8-fold lower.
Then `CN(C)Cc1cncc(-c2ccc3[nH]nc(-c4nc5c(-c6cccc(F)c6)nccc5[nH]4)c3c2F)c1` [Compound 1339, 1-(5-(4-Fluoro-3-(4-(3-fluorophenyl)-1H-imidazo[4,5-c]pyridin-2-yl)-1H-indazol-5-yl)pyridin-3-yl)-N,N-dimethylmethanamine], with 1.18 µM; and `CN(C)Cc1cncc(-c2ccc3[nH]nc(-c4nc5c(-c6ccsc6)nccc5[nH]4)c3c2F)c1` [Compound 1573, 1-(5-(4-Fluoro-3-(4-(thiophen-3-yl)-1H-imidazo[4,5-c]pyridin-2-yl)-1H-indazol-5-yl)pyridin-3-yl)-N,N-dimethylmethanamine], with 3.06 µM.
The result for `CN(C)Cc1cncc(-c2ccc3[nH]nc(-c4nc5c(-c6cc(F)cc(CNS(C)(=O)=O)c6)nccc5[nH]4)c3c2F)c1` [Compound 1729, N-(3-(2-(5-(5-((Dimethylamino)methyl)pyridin-3-yl)-4-fluoro-1H-indazol-3-yl)-1H-imidazo[4,5-c]pyridin-4-yl)-5-fluorobenzyl)methanesulfonamide] reads 1.09 µM; that for `Cc1ncc(-c2ccc3[nH]nc(-c4nc5c(-c6cccc(F)c6)nccc5[nH]4)c3c2)n1C` [Compound 1773, 2-(5-(1,2-Dimethyl-1H-imidazol-5-yl)-1H-indazol-3-yl)-4-(3-fluorophenyl)-1H-imidazo[4,5-c]pyridine], 0.023 µM; that for `Fc1cccc(-c2nccc3[nH]c(-c4n[nH]c5ccc(-c6cncc(OCCN7CCCC7)c6)cc45)nc23)c1` [Compound 1778, 4-(3-Fluorophenyl)-2-(5-(5-(2-(pyrrolidin-1-yl)ethoxy)pyridin-3-yl)-1H-indazol-3-yl)-1H-imidazo[4,5-c]pyridine], 0.28 µM.
Then `Fc1cccc(-c2nccc3[nH]c(-c4n[nH]c5ccc(-c6cncc(OCc7ccccc7)c6)cc45)nc23)c1` [Compound 1782, 2-(5-(5-(Benzyloxy)pyridin-3-yl)-1H-indazol-3-yl)-4-(3-fluorophenyl)-1H-imidazo[4,5-c]pyridine], with 0.575 µM; and `O=C(CC1CCCCC1)Nc1cncc(-c2ccc3[nH]nc(-c4nc5c(-c6cccc(F)c6)nccc5[nH]4)c3c2)c1` [Compound 1783, 2-Cyclohexyl-N-(5-(3-(4-(3-fluorophenyl)-1H-imidazo[4,5-c]pyridin-2-yl)-1H-indazol-5-yl)pyridin-3-yl)acetamide], with 0.505 µM; and `CN1CCN(c2nccc3[nH]c(-c4n[nH]c5ccc(-c6cn[nH]c6)cc45)nc23)CC1` [Compound 1915, 2-(5-(1H-pyrazol-4-yl)-1H-indazol-3-yl)-4-(4-methylpiperazin-1-yl)-1H-imidazo[4,5-c]pyridine], with 0.07 µM.
